Data taken from patent US7220768B2, “Isoxazole-containing thiourea inhibitors useful for treatment of varicella zoster virus” (Wyeth Holdings Corp., priority 2003, dated 2007).
Converted amounts (≈) assume the structure as drawn.

Columns and labels:
VZV = VZV antiviral assay (Table 2); assay type: cell-based, varicella zoster virus; conditions: for IC50: Human alphaherpesvirus 3
RSV = RSV antiviral assay (Table 2); assay type: cell-based; conditions: for IC50: human respiratory syncytial virus
MTS assay (Table 2) = assay type: cell-based
HCMV = test: Human cytomegalovirus yield / microtiter plate assay; assay type: cell-based; conditions: human foreskin fibroblasts; for IC50: Human betaherpesvirus 5, Fibroblast
Experimental: Yield Assay. Monolayer cultures of human foreskin fibroblasts are infected with HCMV wild-type virus, typically at a multiplicity of infection equal to 0.2, in the presence of inhibitors compound (varying concentrations). At three days post-infection, total virus produced in these cultures (i.e. virus yield) is assessed by harvesting and titering the virus in 12-well plates of cultured human foreskin fibroblasts (done in the absence of inhibitors). Plaques are quantified at 2 weeks post-infection. An inhibitor of HCMV is identified by the reduction in titer of virus yield in the presence, compared to the titer in the absence of compound. In this assay, the relative anti-HCMV activity of an inhibitor is typically determined by calculating the IC50 or IC90 value, that is, the amount of compound required to reduce the virus yield by 50% or 90%, respectively. Table 2 describes IC50 data for compounds tested against HCMV.
Microtiter Plate Assay. Ninety-six well plate cultures of human foreskin fibroblasts are infected in the presence of inhibitor compound with a HCMV recombinant mutant virus whose genome contains the prokaryotic beta-glucuronidase gene (Jefferson, R. A., S. M. Burgess, and D. Hirsh. 1986. Beta-glucuronidase from Escherichia coli as a gene fusion marker. Proc. Natl. Acad. Sci. USA 83:8447–8451) whose expression is controlled by a viral promoter. An example of such a virus is RV145 [T. R. Jones; V. P. Muzithras, and Y. Gluzman. 1991, Replacement mutagenesis of the human cytomegalovirus genome: US10 and US11 gene products are nonessential, J. Virol. 65:5860–5872]. Since it is under the control of a viral promoter, beta-glucuronidase expression is an indirect indicator of growth and replication of HCMV in this assay. At 96 hours post-infection, the infected cell lysates are prepared (using 50 mM sodium phosphate [pH 7.0] containing 0.1% Triton X-100 and 0.1% sarkosyl) and assayed for beta-glucuronidase activity using a substrate for the enzyme which when cleaved yields either a product which can be measured colorimetrically in a spectrophotometer or fluorescently in a microfluorimeter. Examples of such substrates are p-nitrophenyl-beta-D-glucuronide and methylumbelliferylglucuronide, respectively. The presence of an antiviral compound is indicated by the reduced expression of the HCMV genome resident beta-glucuronidase gene, compared to the absence of inhibitor. […] Data from this assay generated using varying amounts of inhibitor compound is also used to estimate the IC50 of an inhibitor compound.

HSV = HSV Antiviral (ELISA) Assay; assay type: cell-based, herpes simplex virus; conditions: Vero cells
Experimental: HSV Antiviral (ELISA) Assay. Vero cells (ATCC #CCL-81) are plated on 96-well tissue culture plates at 3.5×10^4 cells per 100 μl tissue culture DMEM (Dulbecco's modified Eagle media) supplemented with 2% fetal bovine serum (FBS) in each well. After overnight incubation, inhibition was determined by comparing the fluorescence obtained in absence of compound to that obtained in the presence of compound.

SMILES | IC50 (VZV) [µg/mL] | IC50 (RSV) [µg/mL] | IC50 (MTS assay (Table 2)) [µg/mL] | IC50 (HCMV) [µg/mL] | IC50 (HSV) [µg/mL] | IC50 VZV (VZV) [µg/mL] | IC50 RSV (RSV) [µg/mL] | IC50 MTS (MTS assay (Table 2)) [µg/mL] | IC50 CMV (HCMV) [µg/mL] | IC50 HSV (HSV) [µg/mL]
CC(NC(=S)Nc1ccc(-c2conc2-c2ccccn2)cc1)c1ccc(F)cc1 (stereo not shown) [Example 20, N-[1-(4-Fluorophenyl)ethyl]-N′-{4-[3-(2-pyridinyl)-4-isoxazolyl]phenyl}thiourea] | 0.18 (≈ 0.43 µM) | > 10 | > 15 | > 10 | > 10 |  |  |  |  | 
CC(NC(=S)Nc1ccc(-c2conc2-c2ccccc2)cc1)c1ccc(F)cc1 (stereo not shown) [Example 23, N-[1-(4-Fluorophenyl)ethyl]-N′-[4-(3-phenyl-4-isoxazolyl)phenyl]thiourea] | 0.89 (≈ 2.13 µM) | > 10 | > 15 | > 10 | > 10 |  |  |  |  | 
CC(NC(=S)Nc1ccc(-c2nocc2-c2ccccc2)cc1)c1ccc(F)cc1 (stereo not shown) [Example 12, 1-[1-(4-Fluoropheny)ethyl]-3-[4-(4-phenylisoxazol-3-yl)phenyl]thiourea] |  |  |  |  |  | 0.37 (≈ 0.886 µM) | >10 | >15 | >10 | >10
CC(NC(=S)Nc1ccc(-c2conc2-c2ncc[nH]2)cc1)c1ccc(F)cc1 (stereo not shown) [Example 24, N-[1-(4-Fluorophenyl)ethyl]-N′-{4-[3-(1 H-imidazol-2-yl)-4-isoxazolyl]phenyl}thiourea] | 1 (≈ 2.45 µM) | > 10 | > 15 | > 10 | > 10 |  |  |  |  | 
CC(NC(=S)Nc1ccc(-c2conc2-c2cccnc2)cc1)c1ccc(F)cc1 (stereo not shown) [Example 15, N-[1-(4-Fluorophenyl)ethyl]-N′-{4-[3-(3-pyridinyl)-4-isoxazolyl]phenyl}thiourea] | 0.19 (≈ 0.454 µM) | > 10 | 14 (≈ 33.5 µM) | > 10 | 3.1 (≈ 7.41 µM) |  |  |  |  | 
CC(NC(=S)Nc1ccc(-c2conc2-c2ccc(O)cc2)cc1)c1ccc(F)cc1 (stereo not shown) [Example 22, N-[1-(4-Fluorophenyl)ethyl]-N′-{4-[3-(4-hydroxyphenyl)-4-isoxazolyl]phenyl}thiourea] | 0.61 (≈ 1.41 µM) | 9.9 (≈ 22.8 µM) | > 15 | 2.5 (≈ 5.77 µM) | > 10 |  |  |  |  | 
CC(NC(=S)Nc1ccc(-c2conc2-c2ccncc2)cc1)c1ccc(F)cc1 (stereo not shown) [Example 17, N-[1-(4-Fluorophenyl)ethyl]-N′-{4-[3-(4-pyridinyl)-4-isoxazolyl]phenyl}thiourea] | 0.14 (≈ 0.335 µM) | 1.5 (≈ 3.58 µM) | 5.5 (≈ 13.1 µM) | 0.93 (≈ 2.22 µM) | 3.7 (≈ 8.84 µM) |  |  |  |  | 
CC(NC(=S)Nc1ccc(-c2conc2-c2ccccc2O)cc1)c1ccc(F)cc1 (stereo not shown) [Example 25, N-[1-(4-Fluorophenyl)ethyl]-N′-{4-[3-(2-hydroxyphenyl)-4-isoxazolyl]phenyl}thiourea] | 1.9 (≈ 4.38 µM) | > 10 | > 15 | 7.9 (≈ 18.2 µM) | > 10 |  |  |  |  | 
CC(NC(=S)Nc1ccc(-c2nocc2CO)cc1)c1ccc(F)cc1 (stereo not shown) [Example 9, 1-[1-(4-Fluorophenyl)ethyl]-3-[4-(4-hydroxymethylisoxazol-3-yl)phenyl]thiourea] | 2 (≈ 5.38 µM) | 7.2 (≈ 19.4 µM) | > 15 | 5.7 (≈ 15.3 µM) | > 10 |  |  |  |  | 
CC(NC(=S)Nc1ccc(-c2nocc2Cc2ccc(F)cc2)cc1)c1ccc(F)cc1 (stereo not shown) [Example 11, 1-{4-[4-(4-Fluorobenzyl)isoxazol-3-yl]phenyl}-3-[1-(4-fluorophenyl)ethyl]thiourea] | 0.16 (≈ 0.356 µM) | 4.7 (≈ 10.5 µM) | 1.9 (≈ 4.23 µM) | 1.8 (≈ 4 µM) | 2.1 (≈ 4.67 µM) |  |  |  |  | 
CC(NC(=S)Nc1ccc(-c2nocc2-c2ccccc2F)cc1)c1ccc(F)cc1 (stereo not shown) [Example 14, 1-[1-(4-Fluorophenyl)ethyl]-3-{4-[4-(2-fluorophenyl)isoxazol-3-yl]phenyl}thiourea] | 5.4 (≈ 12.4 µM) | > 10 | > 15 | > 10 | > 10 |  |  |  |  | 
CC(NC(=S)Nc1ccc(-c2conc2-c2csnn2)cc1)c1ccc(F)cc1 (stereo not shown) [Example 19, N-[1-(4-Fluorophenyl)ethyl]-N′-{4-[3-(1,2,3-thiadiazol-4-yl)-4-isoxazolyl]phenyl}thiourea] | 0.13 (≈ 0.306 µM) | > 10 | > 15 | 0.9 (≈ 2.12 µM) | > 10 |  |  |  |  | 
CC(NC(=S)Nc1ccc(-c2conc2-c2ccc(N(C)C)cc2)cc1)c1ccc(F)cc1 (stereo not shown) [Example 21, N-(4-{3-[4-(Dimethylamino)phenyl]-4-isoxazolyl}phenyl)-N′-[1-(4-fluorophenyl)ethyl]thiourea] | 0.34 (≈ 0.738 µM) | > 10 | > 15 | 9.3 (≈ 20.2 µM) | > 10 |  |  |  |  | 
CC(NC(=S)Nc1ccc(-c2nocc2Cc2ccccc2)cc1)c1ccc(F)cc1 (stereo not shown) [Example 10, 1-[4-(4-Benzylisoxazol-3-yl)phenyl]-3-[1-(4-fluorophenyl)ethyl]thiourea] | 0.086 (≈ 0.199 µM) | > 10 | > 15 | 2.4 (≈ 5.56 µM) | > 10 |  |  |  |  | 
CC(NC(=S)Nc1ccc(-c2conc2-c2ccc(N)cc2)cc1)c1ccc(F)cc1 (stereo not shown) [Example 18, N-{4-[3-(4-Aminophenyl)-4-isoxazolyl]phenyl}-N′-[1-(4-fluorophenyl)ethyl]thiourea] | 0.05 (≈ 0.116 µM) | > 10 | 13 (≈ 30.1 µM) | 2 (≈ 4.62 µM) | > 10 |  |  |  |  | 
CC(NC(=S)Nc1ccc(-c2nocc2C(C)(C)C)cc1)c1ccc(F)cc1 (stereo not shown) [Example 13, 1-[4-(4-tert-Butylisoxazol-3-yl)phenyl]-3-[1-(4-fluorophenyl)ethyl]thiourea] | 0.23 (≈ 0.579 µM) | 2.1 (≈ 5.28 µM) | 1.5 (≈ 3.77 µM) | 1.3 (≈ 3.27 µM) | 2.3 (≈ 5.79 µM) |  |  |  |  | 
CC(NC(=S)Nc1ccc(-c2conc2-c2ccnc3ccccc23)cc1)c1ccc(F)cc1 (stereo not shown) [Example 16, N-[1-(4-Fluorophenyl)ethyl]-N′-{4-[3-(4-quinolinyl)-4-isoxazolyl]phenyl}thiourea] | 0.08 (≈ 0.171 µM) | 2.3 (≈ 4.91 µM) | 6.5 (≈ 13.9 µM) | 0.8 (≈ 1.71 µM) | 3.1 (≈ 6.62 µM) |  |  |  |  | 
